Experiments:
[1] = tested on: carrot seed; conditions: carrot seed treatment; cited from earlier work
[2] = tested on: cotton seeds; conditions: treated cotton seeds; cited from earlier work
[3] = tested on: carrot seeds; conditions: seed soak: gibberellic acid 1 and 100 microgram/l, Ambiol 0.1 mg/l, glycinebetaine 100 mg/l; cited from earlier work
[4] = tested on: Soybean plantlets (Hybrid AG3303); experiment: Fresh weight accumulation after cold shock, soybean plantlets; format: in vivo; conditions: seed treated with 10-20 g/100 kg; one week 22° C./13° C.; measured 10 days after return to greenhouse
Experimental: Soybean plantlets (Hybrid AG3303, available from Asgrow Seed Co., St. Louis, Mo.) that were grown in a greenhouse maintained at day/night temperatures of 30° C. day and 25° C. night and with a 12 hour light period. The seed had been treated with different levels of glycinebetaine and were grown in optimum greenhouse conditions until they reached the first trifoliate stage of development. The plants were then moved from the greenhouse and subjected to 22° C./13° C. day/night temperatures for one week in a Conviron growth chamber. After one week the plants were returned to the greenhouse for “recovery” in optimal conditions. The fresh weight accumulation of the plantlets was then measured after 10 days following their return to the greenhouse.

[5] = tested on: Hybrid "B" corn seeds; experiment: Cold condition germination test (Test 3), Hybrid B corn seeds; format: in vivo; conditions: 10° C.
Experimental: (§1) This test was designed to measure the ability of seeds to germinate under adverse condition associated with high moisture and low temperature. Test 3-This test was conducted as described above in Test 1, except that the Petri dishes were incubated at a constant temperature of 10° C. Germination rate was determined as described above in Test 1. The test length continued for 30 days as the seeds are very slow to germinate under these conditions.

[6] = tested on: seeds of black spruce and jack pine; conditions: seed soak at 0, 0.1, and 10 mg/l; cited from earlier work
[7] = tested on: Corn seeds (Hybrid LH176rr1.4(LH224×LH226)); format: in vivo; conditions: field trial
Experimental: Corn seeds (Hybrid LH176rr1.4(LH224×LH226, available from Holden's Foundation Seeds, Inc., Williamsburg, Iowa) were treated with an antioxidant, alone or in combination with a pesticide (silthiofam, available from Monsanto Co., St. Louis, Mo., under the trade name […]®, 11.83% w/w silthiofam) according to the rates shown in Table 3.
(§2) Samples of seed having each type of treatment shown in Table 3 were planted in a controlled field trial in the upper Midwestern United States. Conservation tillage practices were adhered to and planting was accomplished during the first 10% of the crop that got planted in that area. During the trial, the plant density (number of plants per acre) and the corn yield (bu/acre) were measured.

[8] = tested on: corn seeds; conditions: optimum (warm) conditions; any of the treatment levels tested (10-250 g/100 kg seed)
Experimental: Test 1—Ten seeds for each sample to be tested are placed in each of ten Petri dishes with 5 ml of distilled water and incubated at 30° C. day and 20° C. night with a 16 hour day length. Each day the Petri dishes were checked and scored for germination. Percent germination was determined as the average number of seeds which had germinated within the test period minus any abnormal seeds, divided by the total number of original seeds, times 100. A seed was considered germinated when the radical reached a length of 1 cm.
Test 2—Test 2 is much closer to an industry standard for optimum condition testing. Test seeds are placed on a moist paper towel and then covered with a second moist paper towel. The towel is then rolled into a cylinder and placed upright in a beaker containing water. The beaker is placed in an incubation chamber at 25° C. for 7 days in continuous darkness. After 7 days the number of seeds germinated are counted and converted to a percentage of seeds in the test. This test is used to determine the maximum germination potential of the seed.
After treatment, each seed sample was tested for germination in as described in Test 1, Test 2 and Test 3, as described above.

[9] = tested on: corn seed; experiment: Field trials, emergence in cold conditions by seed treatment rate; format: in vivo; conditions: rates from 25 g/100 Kg to 250 g/100 Kg
Experimental: as §2

[10] = tested on: Corn plantlets (Hybrid LH176rr1.4(LH224×LH226)); experiment: Fresh weight accumulation after cold stress, corn plantlets; format: in vivo; conditions: seed treated with 50-100 g/100 kg; 6 days 18° C./12° C.
[11] = tested on: Hybrid "A" (cold tolerant) corn; conditions: 10° C.; 25 g/100 kg seed
Experimental: (§3) This test was designed to measure the emergence of plantlets from sprouted seeds under conditions that more closely resemble those found in field conditions.
(§4) For each sample batch of seed to be tested, 10 seeds were placed on ½″ of soil medium in a test tray and covered with an additional 2″ of soil medium. Three replications were prepared for each sample batch. The soil is moistened regularly and placed in the desired temperature regime. For a cold emergence test, trays are incubated at 10° C. with 16 hours of light. The tray is monitored daily over a 30-day period and a seed is counted as emerged when the spike breaks through the surface of the soil. Percent emergence is calculated as the number of emerged plantlets divided by the total number of seeds that were planted, times 100.
(§5) Corn hybrids “A” and “B”, as described above were treated with choline chloride at levels of 0, 10, 25 and 50 g/100 kg of seed. Each batch of seed was tested under 10° C. incubation conditions for emergence from a soil medium as described above.

[12] = tested on: Hybrid "B" (cold sensitive) corn; conditions: 10° C.
Experimental: as §3, §4, §5

[13] = tested on: Hybrid "A" corn seeds; experiment: Cold condition germination test (Test 3), Hybrid A corn seeds; format: in vivo; conditions: 10° C.
Experimental: as §1

## C[N+](C)(C)CC(=O)[O-] [glycinebetaine]
[1]
  germination in carrots: hastened germination
[2]
  drought tolerance: improvement in drought tolerance
[3]
  emergence of seedlings: accelerated emergence of seedlings
[4]
  fresh weight accumulation following the cold shock: greater fresh weight accumulation
[5]; 50 g/100 kg
  50% germination earlier than untreated control: three-day earlier germination
[5]; 100 g/100 kg
  50% germination earlier than untreated control: three-day earlier germination

## Cc1nc2ccc(O)c(CN(C)C)c2[nH]1 [Ambiol, 2-methyl-4-[dimethylaminomethyl]-5-hydroxybenzimidazole]
[1]
  germination in carrots: hastened germination
[6]
  membrane leakage: reduced membrane leakage
[3]
  emergence of seedlings: accelerated emergence of seedlings

## C=C1C[C@]23C[C@@]1(O)CC[C@H]2[C@@]12C=C[C@H](O)[C@@](C)(C(=O)O1)[C@H]2[C@@H]3C(=O)O [gibberellic acid]
[3]
  emergence of seedlings: accelerated emergence of seedlings

## C=CCNC(=O)c1c([Si](C)(C)C)sc(C)c1C [silthiofam, 4,5-dimethyl-N-(2-propenyl)-2-(trimethylsilyl)-3-thiophenecarboxamide]
[7]; rates of Table 3 (silthiofam 25, choline chloride 250, glycinebetaine 50, BHA/BHT 10 g/100 kg seed), FIGS. 7B and 7C
  corn yield improvement over untreated control: ~20%
[7]; rates of Table 3, FIG. 7A
  corn plant density (number of plants per acre): significant improvement in corn plant density

## C[N+](C)(C)CCO.[Cl-] [choline chloride]
[8]
  effect on germination under normal growing conditions: no negative effects on germination
[9]
  emergence as a function of rate: emergence is found to increase with the increase of the rate
[10]
  fresh weight accumulation after cold shock vs untreated seed: tendency for greater fresh weight accumulation
[11]
  50% emergence earlier than untreated control: three days before the untreated control
  day on which 50% emergence was reached: 22 days
[12]; 10 g/100 kg seed
  days after seeding at which 50% germination was reached: 29 days
[12]; 10 g/100 kg seed, study end 31 days
  increase in germination time over untreated control: minimum of two days
[12]; 10 g/100 kg treated seed
  first evidence of emergence: 21 days
[13]; 100 g/100 kg (best rate)
  50% germination earlier than untreated control: two days earlier
[13]; lower treatment rates, FIG. 1A / FIG. 2A
  effect on germination rate: substantially the same effect
[5]; 50 g/100 kg
  50% germination earlier than untreated control: three days earlier
[5]; 100 g/100 kg
  50% germination earlier than untreated control: three days earlier
